In brackets after ≈: the same amount, converted by molar mass.
Experiments:
[1] = tested on: human microvascular cells; experiment: endothelial cell cord formation assay (human microvascular cells, VEGF and bFGF, collagen matrix); assay type: cell-based; settings: Homo sapiens, Endothelial cell; Table II; read-out: Minimum Effective Concentration, HM Cord Formation
Description: Endothelial cells have the capacity in vitro to form tubular aggregates resembling capillaries in various early stages of formation. This conversion occurs under relatively specific conditions, in which essential growth factors along with an effective substratum are provided. It has been shown that both the interaction of growth factors with the endothelial cell and its attachment to a substratum activate the NHE. The activation of this exchanger is believed to be required for subsequent morphologic transformation of the endothelial cell into a multicellular tubular structure.
To assess the effect of compounds on the cord-like structures formed by human microvascular cells when plated in the presence of VEGF (Vascular Endothelial Growth Factor) and basic fibroblast growth factor on a collagen matrix, a standard cord formation assay was performed using the method described by Goto, et al., "Synergistic Effects of Vascular Endothelial Growth Factor and Basic Fibroblast Growth Factor on the Proliferation and Cord Formation of Bovine Capillary Endothelial Cells Within Collagen Gels," Laboratory Investigation, Vol. 69, No. 5, 1993, pp. 508-517. This article is entirely incorporated herein by reference.

melanoma cells = experiment: MTT assay for cell number; assay type: cell-based; settings: for MTT assay IC50 / IC50: Tables III-V; for IC50: read-out: MTT assay IC50
Description: In Table V, several aminosterol esters show efficacy in killing melanoma cells in the MTT assay.
The MTT assay for cell number is performed as follows. Cells are counted on a hemocytometer and diluted to a concentration of approx. 10,000 cells/well (55,000 cells/ml×0.18 ml). Cells are then plated in a 96 well microtiter plate and allowed to attach overnight. The next day, compounds are serially diluted from 1000 to 15.6 μg/ml and run in duplicate. 20 μl of each dilution are transferred to the pre-seeded microtiter plates. The final concentrations are 100 to 1.56 μg/ml. The plates are then incubated for 48 hours at 37° C. in 5% CO2. After 48 hours, MTT solution is added. The plate is re-incubated for 4 hours. Readings are done by removing all but 30 μl of media and MTT solution and dissolving the formazan crystals with DMSO. The formazan is dissolved by mixing on a rotating plate at low speed for about 30 minutes. Absorbance of converted dye is measured at a wavelength of 560 nm with background subtraction at 630 nm. The percent survival is determined by a comparison between the mean absorbance of the duplicate test lanes and the growth control.

[2] = tested on: chick embryo vitelline capillaries; experiment: chick embryo vitelline capillary regression assay; assay type: in vivo; design: key to Chick embryo vitelline capillary regression: +: Vascular reactivity; 0: No vascular reactivity; +/-: Equivocal reactivity; settings: for Chick embryo vitelline capillary regression: 60 minutes
Description: Using the chick embryo vitelline capillaries assay, various aminosterol compounds were tested for their ability to induce capillary regression. Each compound was applied in 0.1 ml of 15% Ficol 400 and PBS onto the embryo, and vascular regression was assessed after 60 minutes. These tests were conducted by the chorioallantoic membrane anti-angiogenesis assay by applying the material to be assayed to 3 day old fertilized chick embryos in the manner described by Wilks et al., "Inhibition of Angiogenesis With Combination Angiostatic Steroids and Suramin," Radiation Biology, Vol. 60, Nos. 1/2, 1991, pp. 73-77, which article is entirely incorporated herein by reference.
The 3-day chick embryo consists of an embryonic disc from which numerous vessels emerge and return, forming a "figure 8"-shaped structure--the embryo in the center with vascular loops extending outward over both poles. […] Following a lag period of around 15 minutes, the constriction of continuity between capillary and secondary vessels, generally on the "venous" side, was observed. Continued pulsatile blood flow progressed, resulting in a "swelling" of the blind tube, followed by a pinching off of the remaining connection and formation of an enclosed vascular sac resembling a "blood island." This process progressed until only the largest vessels remained intact.

[3] = tested on: Xenopus laevis Stages 59-60 tadpoles; experiment: tadpole assay; assay type: in vivo; settings: 10 μg/ml where stated
S. aureus = experiment: antibiotic activity, S. aureus; assay type: cell-based; settings: Staphylococcus aureus
E. Coli = experiment: antibiotic activity, E. Coli; assay type: cell-based; settings: Escherichia coli
P. aerug = experiment: antibiotic activity, P. aerug; assay type: cell-based
C. albicans = experiment: antibiotic activity, C. albicans; assay type: cell-based; settings: Candida albicans
[4] = inhibition of MSI-1436 binding; settings: 3H-MSI-1436 at 20 μg/mL
splenocytes = experiment: mitogen proliferation assay (splenocytes of treated mice, Con A); assay type: in vivo; settings: for Rel. potency to MSI-1436, Mitogen Proliferation Assay: 10 mg/kg iv
Description: For the attached Tables, the mitogen proliferation assay was performed by treating mice (male or female) with various amounts of the aminosterol test compounds. Some time later (typically between 2 hours and 14 days), the mice are sacrificed and their spleens removed. Splenocytes are harvested and cultured in the presence of between 1-10 μg/ml of Con A (Sigma) for 48 hours. See James Morgan, "Monoclonal Antibody Production," Modern Methods in Pharmacology, pp. 29-67, eds., Spector and Back, 1988. This excerpt is entirely incorporated herein by reference. Cell proliferation is monitored either by direct cell counting or by measurement of the incorporation of radioactive thymidine.

red blood cells = experiment: swelling of red blood cells; assay type: cell-based

Compound: CC(C)CCCC(C)[C@H]1CCC2C3CC[C@H]4C[C@@H](NCCCNCCCCNCCCN)CC[C@]4(C)C3CC[C@@]21C (stereo partly shown)
- minimal effective concentration [1]: 10 µg/mL
- minimal effective concentration (melanoma cells; 48 h, Table II, read-out: Minimum Effective Concentration, MTT assay): 3 µg/mL

Compound: C[C@H](CCC(=O)O)[C@H]1CC[C@H]2[C@@H]3CC[C@H]4C[C@@H](NCCCNCCCCN)CC[C@]4(C)[C@H]3CC[C@]12C [Compound 319]
- Chick embryo vitelline capillary regression ([2]; 0.001 μg applied): +/-
- Chick embryo vitelline capillary regression ([2]; 0.01 μg applied): +
- Chick embryo vitelline capillary regression ([2]; 0.1 μg applied): +
- Chick embryo vitelline capillary regression ([2]; 1 μg applied): +
- Chick embryo vitelline capillary regression ([2]; 10 μg applied): +
- effect on vitelline capillaries (in words) ([2]; 3- to 5-day chick embryo): especially active
- vascular effect in tadpole (in words) ([3]; about 60 minutes): common vascular occlusive effect

Compound: CC(CCC(=O)O)[C@H]1CCC2C3C(CC[C@@]21C)[C@@]1(C)CC[C@H](NCCCNCCCCNCCCN)C[C@@H]1C[C@H]3O (stereo partly shown)
- MIC (S. aureus): 16 µg/mL (≈ 27.7 µM)
- MIC (E. Coli): 32 to 64 µg/mL (≈ 55.5 to 111 µM)
- MIC (P. aerug): 16 µg/mL (≈ 27.7 µM)
- MIC (C. albicans): 32 µg/mL (≈ 55.5 µM)

Compound: COC(=O)CCC(C)[C@H]1CCC2C3C(CC[C@@]21C)[C@@]1(C)CC[C@H](NCCCNCCCCN)C[C@H]1C[C@H]3O (stereo partly shown)
- MIC (S. aureus): 64 µg/mL (≈ 120 µM)
- MIC (E. Coli): 256 µg/mL (≈ 480 µM)
- MIC (P. aerug): > 256 µg/mL
- MIC (C. albicans): 256 µg/mL (≈ 480 µM)

Compound: COC(=O)CCC(C)[C@H]1CCC2C3C[C@@H](O)[C@H]4C[C@@H](NCCCNCCCCNCCCN)CC[C@]4(C)C3CC[C@@]21C (stereo partly shown)
- MTT assay IC50 (melanoma cells): 14 µg/mL
- IC50 (melanoma cells): 10 µg/mL (≈ 16.9 µM)
- % Inhib. of MSI-1436 Binding @ 100 μg/mL [4]: 51%
- Rel. potency to MSI-1436, Mitogen Proliferation Assay (splenocytes): 0.43

Compound: COC(=O)CC[C@@H](C)[C@H]1CC[C@H]2[C@@H]3CC[C@H]4C[C@@H](NCCCNCCCCNCCCN)CC[C@]4(C)[C@H]3CC[C@]12C [Compound 459]
- potency in the mitogen proliferation assay (in words) (splenocytes; mouse, in vivo): substantial potency
- induction of swelling of red blood cells (in words) (red blood cells): induce swelling of red blood cells

Compound: COC(=O)CCC(C)[C@H]1CCC2C3CC[C@H]4C[C@@H](NCCCNCCCCNCCCN)CC[C@]4(C)C3CC[C@@]21C (stereo partly shown) [drawing 103]
- MTT assay IC50 (melanoma cells): 4 µg/mL
- IC50 (melanoma cells): 5 µg/mL (≈ 8.7 µM)
- % Inhib. of MSI-1436 Binding @ 100 μg/mL [4]: -24%
- Rel. potency to MSI-1436, Mitogen Proliferation Assay (splenocytes): 0.73

Compound: CC(CCC(=O)O)[C@H]1CCC2C3C(CC[C@@]21C)[C@@]1(C)CC[C@H](NCCCNCCCCNCCCN)C[C@H]1C[C@H]3O (stereo partly shown) [drawing 43]
- MIC (P. aerug): 64 µg/mL (≈ 111 µM)

Compound: COC(=O)CC[C@@H](C)[C@H]1CC[C@H]2[C@@H]3C[C@@H](O)[C@H]4C[C@H](NCCN)CC[C@]4(C)[C@H]3CC[C@]12C [Compound 431]
- effect on embryonic epithelium / epithelial shedding (in words) [3]: functionally similar to compound 1437

Compound: CC(CCC(=O)O)[C@H]1CCC2C3C(CC[C@@]21C)[C@@]1(C)CC[C@@H](NCCCNCCCCNCCCN)C[C@H]1C[C@H]3O (stereo partly shown)
- MIC (S. aureus): 64 µg/mL (≈ 111 µM)
- MIC (E. Coli): 8 µg/mL (≈ 13.9 µM)

Compound: COC(=O)CCC(C)[C@H]1CCC2C3C(CC[C@@]21C)[C@@]1(C)CC[C@@H](NCCN)C[C@H]1C[C@H]3O (stereo partly shown) [drawing 40]
- MIC (P. aerug): 32 µg/mL (≈ 71.3 µM)

Compound: COC(=O)CCC(C)[C@H]1CCC2C3C(CC[C@@]21C)[C@@]1(C)CC[C@H](NCCCNCCCCNCCCN)C[C@@H]1C[C@H]3O (stereo partly shown) [drawing 35]
- MIC (S. aureus): 2 to 4 µg/mL (≈ 3.38 to 6.77 µM)

Compound: COC(=O)CC[C@@H](C)[C@H]1CC[C@H]2[C@@H]3CC[C@@H]4C[C@H](NCCN)CC[C@]4(C)[C@H]3C[C@H](O)[C@]12C [Compound 416]
- effect on embryonic epithelium / epithelial shedding (in words) [3]: functionally similar to compound 1437

Source: US5856535A, “Aminosterol ester compounds” (priority 1996, dated 1999)
